This is an account of results in PubChem BioAssay AID652241 (Broad Institute, 2013).

Molecules are shown by their SMILES. Inconclusive results are not listed. Calls of active or inactive are those of the source.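 How the source made its calls: active means fitted curve reaches activity 50 in the expected rising direction at or below the top valid tested dose; inconclusive means no clear call, values can overlap the other calls; inactive means activity in the wrong direction, and the rest.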

One may read the AC50 as the concentration at which the activity in the assay is half-maximal.

The target in this assay is Virion infectivity factor (Human immunodeficiency virus type 1 group M subtype B (isolate BH10)) + Virion infectivity factor (Human immunodeficiency virus type 1 group M subtype B (isolate BRU/LAI)) + Virion infectivity factor (Human immunodeficiency virus type 1 group M subtype B (isolate PCV12)) + Virion infectivity factor (Human immunodeficiency virus type 1 group M subtype B (isolate HXB2)) (UniProt P69720+P69721+P69722+P69723). As to the kind of experiment: Vif multimerization inhibitor potency, dose response, imaging, HEK293T, cherry-picks (AID 652241).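 Further: imaged cell signal that rises when Vif self-association is disrupted.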 As to conditions: 24 h.
Virion infectivity factor (Human immunodeficiency virus type 1 group M subtype B (isolate BH10)) + Virion infectivity factor (Human immunodeficiency virus type 1 group M subtype B (isolate BRU/LAI)) + Virion infectivity factor (Human immunodeficiency virus type 1 group M subtype B (isolate PCV12)) + Virion infectivity factor (Human immunodeficiency virus type 1 group M subtype B (isolate HXB2)), sequence (P69720 whole entry, looked up): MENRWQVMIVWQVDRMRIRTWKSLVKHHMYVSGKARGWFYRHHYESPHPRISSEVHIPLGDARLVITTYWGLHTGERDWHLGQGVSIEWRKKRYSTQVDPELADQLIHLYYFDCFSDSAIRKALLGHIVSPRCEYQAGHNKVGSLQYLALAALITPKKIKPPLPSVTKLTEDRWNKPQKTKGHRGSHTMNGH
Virion infectivity factor (Human immunodeficiency virus type 1 group M subtype B (isolate BH10)) + Virion infectivity factor (Human immunodeficiency virus type 1 group M subtype B (isolate BRU/LAI)) + Virion infectivity factor (Human immunodeficiency virus type 1 group M subtype B (isolate PCV12)) + Virion infectivity factor (Human immunodeficiency virus type 1 group M subtype B (isolate HXB2)), sequence (P69721 whole entry, looked up): as the sequence (P69720 whole entry, looked up) above
Virion infectivity factor (Human immunodeficiency virus type 1 group M subtype B (isolate BH10)) + Virion infectivity factor (Human immunodeficiency virus type 1 group M subtype B (isolate BRU/LAI)) + Virion infectivity factor (Human immunodeficiency virus type 1 group M subtype B (isolate PCV12)) + Virion infectivity factor (Human immunodeficiency virus type 1 group M subtype B (isolate HXB2)), sequence (P69722 whole entry, looked up): as the sequence (P69720 whole entry, looked up) above
Virion infectivity factor (Human immunodeficiency virus type 1 group M subtype B (isolate BH10)) + Virion infectivity factor (Human immunodeficiency virus type 1 group M subtype B (isolate BRU/LAI)) + Virion infectivity factor (Human immunodeficiency virus type 1 group M subtype B (isolate PCV12)) + Virion infectivity factor (Human immunodeficiency virus type 1 group M subtype B (isolate HXB2)), sequence (P69723 whole entry, looked up): as the sequence (P69720 whole entry, looked up) above

For the compound `Cc1ccnc(SCC(=O)n2c3c(c4ccccc42)CC(C)CC3)n1` (stereo not given), for the setting “at 19.5 µM (top of the series)”, the “activity, higher = inhibition” value is “inactive”.

`C=CCN1C(=O)/C(=C/c2ccc(-c3ccc(F)cc3)o2)SC1=S`: for the setting “at 19.5 µM (top of the series)”, the “activity, higher = inhibition” value was “inactive”.

`COc1ccc(OCCN2CCC(C(=O)NC(c3ccccn3)c3ccccc3OC)CC2)cc1` (stereo not given): the “activity, higher = inhibition” value (at 6.8 µM (top of the series)) was “inactive”.

In the case of `COc1ccc(-c2cc(C(F)(F)F)n3nc(C(=O)NCc4ccco4)c(Cl)c3n2)cc1`, the concentration at half-maximal activity (AC50) is 8.52 µM.

Take `CCCCOc1ncnc2c1[nH]c1ccccc12`: the “activity, higher = inhibition” value (at 19.5 µM (top of the series)) was “inactive”.

On to `Cc1cc(C)c(S(=O)(=O)N2CCN(S(=O)(=O)N3CCOCC3)CC2)c(C)c1`, for which the “activity, higher = inhibition” value (at 19.5 µM (top of the series)) is “inactive”.

Take `CN(C)C(=O)c1cc(Br)ccc1Cl`: for the setting “at 19.5 µM (top of the series)”, the “activity, higher = inhibition” value was “inactive”.

Regarding `NC(c1csc(Nc2ccc(C(=O)c3ccccc3)cc2)n1)C1CCCCC1` (stereo not given), where the note is “at 6.8 µM (top of the series)”, the “activity, higher = inhibition” value is “inactive”.

`CC(C)CN(C(=O)COC(=O)CSc1ccccc1)c1c(N)n(Cc2ccccc2)c(=O)[nH]c1=O`: where the note is “at 19.5 µM (top of the series)”, the “activity, higher = inhibition” value is “inactive”.

Consider `CCCSc1ccc2nc(NC(=O)OC)[nH]c2c1`, for which the AC50 is 15.4 µM.

As to `Cc1ccnc(NC(=O)CCCOc2cc(=O)n(C)c3ccccc23)c1`, the AC50 is 1.79 µM.

Regarding `Cc1nnc2ccc(-c3ccc(NS(=O)(=O)c4ccc(Cl)s4)cc3)nn12`, the AC50 was 14.5 µM.

`CCOC(=O)c1c(NC(=O)CCC(=O)N2CCOCC2)sc2c1CC(C)(C)OC2`: the “activity, higher = inhibition” value (at 19.5 µM (top of the series)) is “inactive”.

Regarding `CCn1c(/C=C/c2ccc(F)cc2)nc2ccccc2c1=O`, the “activity, higher = inhibition” value (at 19.5 µM (top of the series)) is “inactive”.

As for `CCOc1cc(/C=C2\CN(CC)C/C(=C\c3ccc(O)c(OCC)c3)C2=O)ccc1O`, the AC50 is 7.26 µM.

`COc1ccc(-c2cc(-c3nc4ccccn4c3NCc3ccccc3)ccc2OC)cc1`: the AC50 is 3.66 µM.

`COc1ccc(C(=O)Nc2cc(OC)c(NC(=O)Nc3ccccc3)cc2OC)cc1`: the “activity, higher = inhibition” value (at 19.5 µM (top of the series)) is “inactive”.

For the compound `CC(C)CC(NC(=O)C1CCCCC1)C(=O)N1CCC2(CC1)OCCO2` (stereo not given), the “activity, higher = inhibition” value (at 19.5 µM (top of the series)) is “inactive”.

Turning to `Cc1nc(-c2ccc(O)c(O)c2)cs1`, the AC50 is > 19.5 µM (inactive).

For `COc1ccc(-c2coc3c(C(=O)Nc4cccc(C(C)=O)c4)cccc23)c(C)c1`, the “activity, higher = inhibition” value (at 19.5 µM (top of the series)) is “inactive”.

With `COCCNC(=O)c1nn2c(C(F)(F)F)cc(-c3ccccc3)nc2c1Cl`, the AC50 is > 19.5 µM (inactive).

Take `Cc1ncoc1C(=O)N1CCCC(C(=O)c2ccc(Oc3ccccc3)cc2)C1` (stereo not given): under “at 19.5 µM (top of the series)”, the “activity, higher = inhibition” value was “inactive”.

With `CC(OC(=O)c1c[nH]c2ccccc12)C(=O)N1CCCC1` (stereo not given), for the setting “at 19.5 µM (top of the series)”, the “activity, higher = inhibition” value is “inactive”.

As for `COc1cc(/C=C/C(=O)O)ccc1S(=O)(=O)N1CCCc2ccccc21`, the “activity, higher = inhibition” value (at 19.5 µM (top of the series)) is “inactive”.

Turning to `O=C(Nc1ccnc(-c2cccnc2)n1)c1cccs1`, the “activity, higher = inhibition” value (at 19.5 µM (top of the series)) was “inactive”.

On to `c1ccc(-c2cn3nc(-c4ccccc4)c(-c4ccccc4)nc3n2)cc1`, for which the half-maximal activity concentration (AC50) was 19.2 µM.

In the case of `COc1ccc(-c2nc3cnccn3c2NC2CCCCC2)cc1-c1cccc(Cl)c1`, the AC50 was 14.5 µM.

Take `N#Cc1cc2c(=O)n3ccccc3nc2n(-c2ccccc2Cl)c1=O`: the “activity, higher = inhibition” value (at 6.8 µM (top of the series)) is “inactive”.

Turning to `O=C(c1cc(Cl)c(=O)n(Cc2ccccc2)c1)N1CCOCC1`, under “at 19.5 µM (top of the series)”, the “activity, higher = inhibition” value is “inactive”.

For the compound `CC(C)C(NC(=O)c1ccccc1NC(=O)C(C)(C)C)C(=O)N1CCOCC1` (stereo not given), for the setting “at 19.5 µM (top of the series)”, the “activity, higher = inhibition” value was “inactive”.

As to `CCN(CC)C(=O)c1ccc(C(=O)c2c(C)cc(C)cc2C)cc1`, under “at 19.5 µM (top of the series)”, the “activity, higher = inhibition” value is “inactive”.

As for `COc1ccccc1CNC(=O)CSC1=NCCS1`, where the note is “at 19.5 µM (top of the series)”, the “activity, higher = inhibition” value is “inactive”.

For `NCCCCCC(=O)Nc1ccncc1`, the “activity, higher = inhibition” value (at 19.5 µM (top of the series)) is “inactive”.

As for `Cc1ccc(S(=O)(=O)c2nc(-c3ccccc3Cl)oc2N(C)C2CCN(C)CC2)cc1`, the “activity, higher = inhibition” value (at 19.5 µM (top of the series)) was “inactive”.

Take `CCc1ccc2[nH]c3nc(SCC(=O)NNC(=O)c4ccc(C(C)(C)C)cc4)nnc3c2c1`: the concentration at half-maximal activity (AC50) is 7.22 µM.

In the case of `O=C(NCC1CC1)NC(=O)c1c(F)cccc1Cl`, under “at 19.5 µM (top of the series)”, the “activity, higher = inhibition” value is “inactive”.

Take `CCOc1ccc(C(C)=O)cc1COC(=O)c1cc([N+](=O)[O-])ccc1N1CCOCC1`: the “activity, higher = inhibition” value (at 19.5 µM (top of the series)) was “inactive”.

With `CCOC(=O)C[C@@H](C#N)NC(=O)[C@@H]1CCCN1C(=O)[C@@H](NC(=O)c1ccc(N)c(Cl)c1)C(C)(C)C`, under “at 19.5 µM (top of the series)”, the “activity, higher = inhibition” value was “inactive”.

For `COc1ccc(-c2ccc3c(N)c(C(=O)c4ccc(OC)c(OC)c4)sc3n2)cc1`, the AC50 was > 19.5 µM (inactive).

Regarding `O=C(CCNC(=O)c1ccco1)Nc1ccc(OC(F)(F)F)cc1`, the “activity, higher = inhibition” value (at 19.5 µM (top of the series)) is “inactive”.

Take `CCCCn1c(-c2ccncc2)nc2c1c(=O)[nH]c(=O)n2CC(C)C`: the “activity, higher = inhibition” value (at 19.5 µM (top of the series)) is “inactive”.

For `COc1cc(CNCc2ccccc2)c(Br)cc1OC1CCCC1`, the “activity, higher = inhibition” value (at 19.5 µM (top of the series)) was “inactive”.

For `O=C(c1ccc2c(c1)OCO2)N(CC1CCCO1)C1(C(=O)NC2CCCC2)CCCCC1` (stereo not given), the “activity, higher = inhibition” value (at 19.5 µM (top of the series)) was “inactive”.

As to `COc1cc(NC(=O)c2ccc(C)cc2C)ccc1NC(=O)c1cccs1`, the “activity, higher = inhibition” value (at 19.5 µM (top of the series)) is “inactive”.

Turning to `Cc1cc2cc(C#N)c(SCC(=O)Nc3nonc3C)nc2cc1C`, the AC50 was 8.45 µM.

In the case of `CNC(=O)c1ccc(NC(=O)c2cc(S(=O)(=O)N(C)C)ccc2N2CCCC2)cc1`, where the note is “at 19.5 µM (top of the series)”, the “activity, higher = inhibition” value was “inactive”.

Take `COC(=O)c1ccc(Oc2coc3cc(OCc4cnn(-c5ccccc5)c4)ccc3c2=O)cc1`: the AC50 was 17.2 µM.

Regarding `CCCCCCn1c(N(CC)CC)nc2c1c(=O)[nH]c(=O)n2C`, the “activity, higher = inhibition” value (at 19.5 µM (top of the series)) was “inactive”.

With `CCN(CC)C1Oc2cc3c(cc2C(c2cc(OC)c(OC)c(OC)c2)C1C)OCO3` (stereo not given), the AC50 was 6.24 µM.

On to `CCc1cc2c(Sc3nc4ccccc4s3)ncnc2s1`, for which, where the note is “at 19.5 µM (top of the series)”, the “activity, higher = inhibition” value is “inactive”.
